Where “and” joins values, the source holds several entries; their conditions need not be identical. Identical values can stand only once.
O=C(C(F)(F)C(F)(F)F)C(F)(C(F)(F)F)C(F)(F)F [dodecafluoro-2-methylpentan-3-one]
Conditions	thermal conductivity
300.81 K, 35 kPa, Gas, hot wire	0.0117 W/m/K and 0.01167 W/m/K
300.82 K, 27 kPa, Gas, hot wire	0.01167 W/m/K
301.02 K, 35 kPa, Gas, hot wire	0.01175 W/m/K and 0.01169 W/m/K
301.02 K, 40 kPa, Gas, hot wire	0.01176 W/m/K and 0.01171 W/m/K
301.04 K, 26 kPa, Gas, hot wire	0.01169 W/m/K
301.04 K, 27 kPa, Gas, hot wire	0.01166 W/m/K
301.12 K, 68548 kPa, Liquid, transient hot wire	0.07848 W/m/K
301.12 K, 68619 kPa, Liquid, transient hot wire	0.07853 W/m/K
301.16 K, 59412 kPa, Liquid, transient hot wire	0.07633 W/m/K
301.16 K, 59421 kPa, Liquid, transient hot wire	0.07635 W/m/K
301.2 K, 15856 kPa, Liquid, transient hot wire	0.06469 W/m/K
301.2 K, 15861 kPa, Liquid, transient hot wire	0.06419 W/m/K
301.2 K, 48052 kPa, Liquid, transient hot wire	0.07348 W/m/K
301.21 K, 48059 kPa, Liquid, transient hot wire	0.07348 W/m/K
301.23 K, 38563 kPa, Liquid, transient hot wire	0.07045 W/m/K
301.23 K, 38570 kPa, Liquid, transient hot wire	0.07088 W/m/K
301.25 K, 35 kPa, Gas, hot wire	0.01177 W/m/K and 0.01172 W/m/K
301.25 K, 40 kPa, Gas, hot wire	0.01175 W/m/K and 0.01177 W/m/K
301.26 K, 29951 kPa, Liquid, transient hot wire	0.06831 W/m/K
301.26 K, 29959 kPa, Liquid, transient hot wire	0.06831 W/m/K
301.27 K, 26 kPa, Gas, hot wire	0.0117 W/m/K
301.27 K, 27 kPa, Gas, hot wire	0.01169 W/m/K
301.27 K, 22365 kPa, Liquid, transient hot wire	0.06588 W/m/K
301.27 K, 22366 kPa, Liquid, transient hot wire	0.06588 W/m/K
301.29 K, 68411 kPa, Liquid, transient hot wire	0.07844 W/m/K
301.3 K, 68477 kPa, Liquid, transient hot wire	0.07847 W/m/K
301.31 K, 15646 kPa, Liquid, transient hot wire	0.06353 W/m/K
301.32 K, 15647 kPa, Liquid, transient hot wire	0.06353 W/m/K
301.32 K, 15982 kPa, Liquid, transient hot wire	0.06426 W/m/K
301.32 K, 68614 kPa, Liquid, transient hot wire	0.07896 W/m/K
301.33 K, 15978 kPa, Liquid, transient hot wire	0.06437 W/m/K
301.33 K, 58469 kPa, Liquid, transient hot wire	0.07677 W/m/K
301.33 K, 68621 kPa, Liquid, transient hot wire	0.07913 W/m/K
301.34 K, 29983 kPa, Liquid, transient hot wire	0.06887 W/m/K
301.34 K, 38644 kPa, Liquid, transient hot wire	0.07116 W/m/K
301.34 K, 38645 kPa, Liquid, transient hot wire	0.07082 W/m/K
301.34 K, 48192 kPa, Liquid, transient hot wire	0.07381 W/m/K
301.34 K, 48193 kPa, Liquid, transient hot wire	0.07385 W/m/K
301.34 K, 58483 kPa, Liquid, transient hot wire	0.07689 W/m/K
301.35 K, 9734 kPa, Liquid, transient hot wire	0.06181 W/m/K
301.35 K, 9737 kPa, Liquid, transient hot wire	0.06163 W/m/K
301.35 K, 29988 kPa, Liquid, transient hot wire	0.06876 W/m/K
301.35 K, 59394 kPa, Liquid, transient hot wire	0.07632 W/m/K
301.35 K, 59405 kPa, Liquid, transient hot wire	0.07636 W/m/K
301.36 K, 186 kPa, Liquid, transient hot wire	0.05707 W/m/K
301.36 K, 22446 kPa, Liquid, transient hot wire	0.0654 W/m/K
301.37 K, 186 kPa, Liquid, transient hot wire	0.05699 W/m/K
301.37 K, 4437 kPa, Liquid, transient hot wire	0.05962 W/m/K
301.37 K, 4442 kPa, Liquid, transient hot wire	0.05915 W/m/K
301.37 K, 22450 kPa, Liquid, transient hot wire	0.06542 W/m/K
301.38 K, 9940 kPa, Liquid, transient hot wire	0.06178 W/m/K
301.39 K, 94 kPa, Liquid, transient hot wire	0.05683 W/m/K
301.39 K, 100 kPa, Liquid, transient hot wire	0.05659 W/m/K
301.39 K, 9943 kPa, Liquid, transient hot wire	0.06137 W/m/K
301.39 K, 68810 kPa, Liquid, transient hot wire	0.07913 W/m/K
301.39 K, 68825 kPa, Liquid, transient hot wire	0.07893 W/m/K
301.4 K, 48039 kPa, Liquid, transient hot wire	0.0735 W/m/K
301.4 K, 48041 kPa, Liquid, transient hot wire	0.07342 W/m/K
301.41 K, 182 kPa, Liquid, transient hot wire	0.057 W/m/K
301.42 K, 181 kPa, Liquid, transient hot wire	0.05699 W/m/K
301.43 K, 4512 kPa, Liquid, transient hot wire	0.0591 W/m/K
301.43 K, 4517 kPa, Liquid, transient hot wire	0.05911 W/m/K
301.43 K, 38558 kPa, Liquid, transient hot wire	0.0709 W/m/K
301.44 K, 38562 kPa, Liquid, transient hot wire	0.07087 W/m/K
301.46 K, 29951 kPa, Liquid, transient hot wire	0.06828 W/m/K
301.47 K, 29958 kPa, Liquid, transient hot wire	0.0683 W/m/K
301.48 K, 22365 kPa, Liquid, transient hot wire	0.06549 W/m/K
301.49 K, 22364 kPa, Liquid, transient hot wire	0.06585 W/m/K
301.49 K, 68338 kPa, Liquid, transient hot wire	0.07849 W/m/K
301.5 K, 35 kPa, Gas, hot wire	0.01174 W/m/K
301.5 K, 40 kPa, Gas, hot wire	0.01178 W/m/K
301.5 K, 41 kPa, Gas, hot wire	0.01177 W/m/K
301.5 K, 68274 kPa, Liquid, transient hot wire	0.07839 W/m/K
301.51 K, 35 kPa, Gas, hot wire	0.01178 W/m/K
301.52 K, 27 kPa, Gas, hot wire	0.01171 W/m/K
301.53 K, 27 kPa, Gas, hot wire	0.0117 W/m/K
301.54 K, 121 kPa, Liquid, transient hot wire	0.05731 W/m/K and 0.05707 W/m/K
301.54 K, 15641 kPa, Liquid, transient hot wire	0.06381 W/m/K
301.54 K, 15643 kPa, Liquid, transient hot wire	0.06352 W/m/K
301.54 K, 59383 kPa, Liquid, transient hot wire	0.07629 W/m/K
301.54 K, 59392 kPa, Liquid, transient hot wire	0.07615 W/m/K
301.56 K, 34 kPa, Gas, transient hot wire	0.01199 W/m/K
301.57 K, 34 kPa, Gas, transient hot wire	0.01211 W/m/K
301.59 K, 15866 kPa, Liquid, transient hot wire	0.06262 W/m/K

— the NIST ThermoML archive (doi:10.1021/acs.jced.8b00132)
